In patent US20160299149A1, “ASSAYS AND METHODS FOR CELL PROLIFERATION-TARGETED TREATMENT THERAPIES” (University of Central Florida Research Foundation, Inc., priority 2015, published 2016):

Key:
Panc-1 [1] = assay: 3H Spd import Vmax, untreated cells; format: cell-based, human
Text: (§1) FIG. 10 is a table providing the Relative Protein expression of Cav-1, ATP13A3 and c-myc in human pancreatic cancer cell lines along with the respective Vmax values for ^3H spermidine (Spd) import and the relative affinity Km values determined for spermidine. Entries represent 100%×protein expression/beta actin expression as shown in FIG. 10 along with the Vmax value already provided. The Western blots were quantified by Image J software (NIH) and normalized by dividing by the beta-actin expression level for each cell line. Entries represent protein expression and are expressed in relative %, with the L3.6pl cell expression levels set to 100%.
(§2) FIG. 10 provides a table showing the relative protein expression of Cav-1, ATP13A3 and c-myc in human pancreatic cancer cell lines (normalized by dividing by the relative beta actin expression level) along with the respective Vmax values for ^3H Spd import and Km values. The entries represent 100%×protein expression/beta actin expression is shown in the table along with the Vmax and Km values reported earlier. As mentioned earlier, a strong correlation was found between ATP13A3 expression and the ability of DFMO-treated cells to be rescued by exogenous spermidine (FIG. 8, rightmost column).

L3.6pl [2] = assay: 3H Spd import Vmax, untreated cells; format: cell-based, human
Text: as §1, §2

SU86.86 [3] = assay: 3H Spd import Vmax, untreated cells; format: cell-based, human
Text: as §1, §2

Capan-1 [4] = assay: 3H Spd import Vmax, untreated cells; format: cell-based, human
Text: as §1, §2

BxPC-3 [5] = assay: 3H Spd import Vmax, untreated cells; format: cell-based, human
Text: as §1, §2

AspC-1 [6] = assay: 3H Spd import Vmax, untreated cells; format: cell-based, human
Text: as §1, §2

HPNE [7] = assay: 3H Spd import Vmax, untreated cells; format: cell-based, human
Text: as §1, §2

[8] = tested on: L3.6pl, Panc1, CHO and PanO2 cells; assay: Cell line sensitivity to DFMO and spermidine rescue challenge; format: cell-based; settings: cells dosed with IC50 dose of DFMO, spermidine 1 μM, read-out: viability level after rescue by exogenous spermidine
Panc-1 [9] = assay: Spermidine rescue of DFMO-treated cells; format: cell-based, human; settings: DFMO-treated Panc-1 cells
Procedure: (§3) FIG. 8 provides an illustration and a table showing different cell line sensitivity to DFMO and spermidine rescue challenge. The rescue challenge experiment doses cells with the respective IC50 dose of DFMO for that cell line and measures the viability of cells with and without added spermidine (1 μM). Cell lines without added spermidine give the expected 50% viability due to the presence of DFMO. […] These are highlighted in red. Cell lines with low polyamine transport activity are not rescued to a significant extent even though a rescuing dose of spermidine is available and give viabilities near 50%.
(§4) DFMO was dosed to give 50% relative viability versus an untreated control, i.e. DFMO is dosed at its IC50 value. Exogenous spermidine (Spd, 1 μM) is added to the DFMO treated cells and provided significant rescue of these cells to >80% viability depending upon the cell line. A successful PTI was able to block the entry of the spermidine rescuing agent into DFMO treated cells and result in a cell viability near the DFMO control (i.e. 50% viability). The inventors identified the following cell viabilities: DFMO only (50%), Spd only (100%), PTI (>90%), DFMO+Spd (>80%), DFMO+Spd+PTI (50%). The PTI provides a dose dependent lowering of cell viability in the presence of DFMO and a rescuing dose of spermidine. […] Identifying cells that respond to exogenous spermidine allow this assay to be possible and the c-myc and ATP13A3 biomarkers help predict these outcomes as well as the Vmax measurements for ^3H Spd import.

L3.6pl [10] = assay: Spermidine rescue of DFMO-treated cells; format: cell-based, human; settings: DFMO-treated L3.6pl cells
Procedure: as §3, §4

SU86.86 [11] = assay: Spermidine rescue of DFMO-treated cells; format: cell-based, human; settings: DFMO-treated SU86.86 cells
Procedure: as §3, §4

Capan-1 [12] = assay: Spermidine rescue of DFMO-treated cells; format: cell-based, human; settings: DFMO-treated Capan-1 cells
Procedure: as §3, §4

BxPC-3 [13] = assay: Spermidine rescue of DFMO-treated cells; format: cell-based, human; settings: DFMO-treated BxPC-3 cells
Procedure: as §3, §4

AspC-1 [14] = assay: Spermidine rescue of DFMO-treated cells; format: cell-based, human; settings: DFMO-treated AspC-1 cells
Procedure: as §3, §4

HPNE [15] = assay: Spermidine rescue of DFMO-treated cells; format: cell-based, human
Procedure: as §3, §4

[16] = Polyamine transport inhibitor assay 2: PTI blocks uptake of rescuing spermidine into DFMO-treated cells; format: cell-based; settings: DFMO dosed at its IC50; Spd 1 μM; PTI not above its IC10; relative to untreated control; read-out: cell viability
Procedure: FIG. 6A is a diagram showing an assay wherein the uptake of rescuing dose of spermidine into DFMO-treated cells is blocked by a PTI (GW 5074).
as §4

[17] = tested on: MALME-3M cells and MALME-3 control cells; assay: Spermidine competition / percent viability with compound A; format: cell-based; settings: 100 μM; MALME-3M and MALME-3
Procedure: Aminoguanidine (AG) at 1 mM was determined to be non-toxic and was incubated with cells for 24 h prior to compound addition. Control represents the untreated cells. All experiments were performed in triplicate. Spermidine (Spd, 100 μM) was non-toxic to both cell lines. […] Compound A is a valid polyamine transport probe.

NCCCCNCCCN [Spermidine, spermidine]
Vmax of ^3H Spd untreated cells (Panc-1 [1]): 13 nmoles Spd/mg protein/min | Vmax of ^3H Spd untreated cells (L3.6pl [2]): 24 nmoles Spd/mg protein/min | Vmax of ^3H Spd untreated cells (SU86.86 [3]): 7.0 nmoles Spd/mg protein/min | Vmax of ^3H Spd untreated cells (Capan-1 [4]): 0.8 nmoles Spd/mg protein/min | Vmax of ^3H Spd untreated cells (BxPC-3 [5]): 9.0 nmoles Spd/mg protein/min | Vmax of ^3H Spd untreated cells (AspC-1 [6]): 2.3 nmoles Spd/mg protein/min | Vmax of ^3H Spd untreated cells (HPNE [7]): 1.8 nmoles Spd/mg protein/min | viability at 1 μM [8]: > 80% | Spd rescue index (Panc-1 [9]): med | Spd rescue index (L3.6pl [10]): high | Spd rescue index (SU86.86 [11]): med | Spd rescue index (Capan-1 [12]): Not rescuable | Spd rescue index (BxPC-3 [13]): low | Spd rescue index (AspC-1 [14]): Not rescuable | Spd rescue index (HPNE [15]): very low | viability at 1 μM [16]: 100% | toxicity to both cell lines [17]: non-toxic
